The values below come from patent US10335409B2 (priority 2012, dated 2019).

The structures appear in SMILES notation. Where two headings read alike, the source gives them in different places.

What all share (format): cell-based, hepatitis C virus
Test [1] deals with genotype 1a (H77) stable HCV replicon in Huh-7-derived cells. The experiment in a line: Stable subgenomic HCV replicon EC50, genotype 1a (Renilla luciferase). To be noted: Hepatitis C virus, stable replicon genotype 1a, 72 h, read-out: EC50 1A RLUC. Here is the method: (§1) Antiviral potency (EC50) was determined in both stable subgenomic HCV replicon cell lines and transient-transfected HCV replicon cells. The term half maximal effective concentration (EC50) refers to the concentration of a drug which induces a response halfway between the baseline and maximum after the exposure time specified below.
(§2) Stable subgenomic HCV replicons for genotype 1a, 1b, 2a, 3a, and 4a were established in Huh-7-derived cells as described by Lohmann et al (Lohmann V, Korner F, Koch J, et al Replication of subgenomic hepatitis C virus RNAs in a hepatoma cell line. Science 1999; 285:119-3) Each stable cell line contains a bicistronic HCV replicon that encodes a humanized Renilla luciferase (hRLuc) reporter gene fused to a selectable neomycin-resistance gene, followed by an EMCV IRES and the NS3-NS5B coding region of HCV. […] Luciferase activity was measured as a marker for intracellular HCV replication levels.
(§3) The genotype 1a stable replicon was derived from the H77 HCV strain and contained adaptive mutations P1496L and S2204I. The genotype 1b stable replicon was derived from the Con1 HCV strain and contained adaptive mutations E1202G, T1280I and K1846T. […] The genotype 3a stable replicon was derived from the S52 HCV strain and contained adaptive mutations P1121L, A1198T and S2210I (equivalent to S2204I in genotype 1). The genotype 4a stable replicon was derived from the ED43 HCV strain and contained adaptive mutations Q1691R and S2204I. All replicon cell lines were propagated in Huh-7-derived cells and maintained in Dulbecco's modified Eagle's Medium (DMEM) supplemented with 10% fetal bovine serum (FBS) and 0.5 mg/mL G418.
(§4) To perform EC50 assays, cells from each HCV replicon were dispensed into 384-well plates. Compounds were dissolved in DMSO at a concentration of 10 mM and diluted in DMSO using an automated pipetting instrument. Three-fold serially diluted compounds were directly added to the cells using an automated instrument. […] Seventy-two hours later, cells were lysed and Renilla luciferase activity were quantified as recommended by the manufacturer (Promega-Madison, Wis.). Non-linear regression was performed to calculate EC50 values.
For orientation: In antiviral work, replicon cells carry a viral genome segment that copies itself.

Test [2] relates to genotype 1b (Con1) stable HCV replicon in Huh-7-derived cells. The test is described as follows: Stable subgenomic HCV replicon EC50, genotype 1b (Renilla luciferase). To be noted: Hepatitis C virus, stable replicon genotype 1b, 72 h, read-out: EC50 1B RLUC. On the procedure:
as §1, §2, §3, §4

Test [3] relates to genotype 2a (JFH-1) stable HCV replicon in Huh-7-derived cells. The test is described as follows: Stable subgenomic HCV replicon EC50, genotype 2a (Renilla luciferase). The settings on record: Hepatitis C virus, stable replicon genotype 2a, 72 h, read-out: EC50 2A RLUC. Here is the method: as §1, §2, §3, §4
The subject of test [4] is genotype 3a (S52) stable HCV replicon in Huh-7-derived cells. The experiment in a line: Stable subgenomic HCV replicon EC50, genotype 3a (Renilla luciferase). To be noted: Hepatitis C virus, 72 h, read-out: EC50 3A RLUC. On the procedure: as §1, §2, §3, §4
For test [5], the system named is genotype 4a (ED43) stable HCV replicon in Huh-7-derived cells. The test is described as follows: Stable subgenomic HCV replicon EC50, genotype 4a (Renilla luciferase). The settings on record: Hepatitis C virus, 72 h, read-out: EC50 4A RLUC. On the procedure:
as §1, §2, §3, §4

Test [6] has as its system genotype 1a (H77) wild type transient HCV replicon in Huh-7-derived cells. The test is described as follows: Transient-transfected HCV replicon EC50, genotype 1a wild type. The settings on record: Hepatitis C virus, 72 h, read-out: EC50 1A WT.
Test [7] concerns genotype 1a NS3/4a protease inhibitor resistant variant R155K transient HCV replicon in Huh-7-derived cells. The experiment in a line: Transient-transfected HCV replicon EC50, genotype 1a R155K. To be noted: Hepatitis C virus, 72 h, read-out: EC50 1A R155K, transient-transfected replicon genotype 1a R155K resistant variant, 72 h.
Test [8] has as its system genotype 1b (Con1) wild type transient HCV replicon in Huh-7-derived cells. The test is described as follows: Transient-transfected HCV replicon EC50, genotype 1b wild type. The settings on record: Hepatitis C virus, 72 h, read-out: EC50 1B WT.
The test system of test [9] is genotype 1b NS3/4a protease inhibitor resistant variant D168A transient HCV replicon in Huh-7-derived cells. The experiment in a line: Transient-transfected HCV replicon EC50, genotype 1b D168A. The settings on record: Hepatitis C virus, 72 h, read-out: EC50 1B D168A, transient-transfected replicon genotype 1b D168A resistant variant, 72 h.
The mark [10] stands for this setting: transient-transfected replicon genotype 1a wild type.
[11] abbreviates: transient-transfected replicon genotype 1b wild type.

As a reminder, the EC50 is the midpoint of the concentration-response curve. With `CC[C@@H]1C[C@]1(NC(=O)[C@@H]1[C@H](C)[C@@H]2CN1C(=O)[C@H](C(C)(C)C)NC(=O)O[C@@H]1C[C@H]1CCCCCc1nc3ccc(OC)cc3nc1O2)C(=O)NS(=O)(=O)C1(C)CC1` [Example 21, (1aR,5S,8S,9S,10R,22aR)-5-tert-butyl-N-[(1R,2R)-2-ethyl-1-{[(1-methylcyclopropyl)sulfonyl]carbamoyl}cyclopropyl]-14-methoxy-9-methyl-3,6-dioxo-1,1a,3,4,5,6,9,10,18,19,20,21,22,22a-tetradecahydro-8H-7,10-methanocyclopropa[18,19][1,10,3,6]dioxadiazacyclononadecino[11,12-b]quinoxaline-8-carboxamide], the EC50 in test [1] stood at 6.8 nM; in test [2] it was 4.7 nM; in [3], 12 nM; in test [4], 263 nM; in test [5], 6.2 nM; in [6] it was 4.1 nM. Moreover, the figures for the EC50 in test [7], in [8] and in test [9] were 15 nM, 3.8 nM and 70 nM, respectively.

`COc1ccc2nc3c(nc2c1)O[C@H]1CN(C(=O)[C@H](C(C)(C)C)NC(=O)O[C@@H]2C[C@H]2CCCCC3)[C@H](C(=O)N[C@]2(C(=O)NS(=O)(=O)C3CC3)C[C@H]2CCF)[C@@H]1C` [Example 22, (1aR,5S,8S,9S,10R,22aR)-5-tert-butyl-N-[(1R,25)-1-[(cyclopropylsulfonyl)carbamoyl]-2-(2-fluoroethyl)cyclopropyl]-14-methoxy-9-methyl-3,6-dioxo-1,1a,3,4,5,6,9,10,18,19,20,21,22,22a-tetradecahydro-8H-7,10-methanocyclopropa[18,19][1,10,3,6]dioxadiazacyclononadecino[11,12-b]quinoxaline-8-carboxamide]: the EC50 in [1] is 15 nM; in test [2], 7.5 nM; in [3], 27 nM; in [4] it was 727 nM; in test [5], 11 nM; in test [6] (setting [10]), 8.6 nM. Further, the results for the EC50 in test [7], in test [8] (setting [11]) and in test [9] were 48 nM, 2.6 nM and 242 nM, respectively.

On to `COc1ccc2nc3c(nc2c1)O[C@H]1CN(C(=O)[C@H](C(C)(C)C)NC(=O)O[C@@H]2C[C@H]2CCCCC3)[C@H](C(=O)N[C@]2(C(=O)NS(=O)(=O)C3(C)CC3)C[C@H]2CCF)[C@@H]1C` [Example 23, (1aR,5S,8S,9S,10R,22aR)-5-tert-butyl-N-[(1R,2S)-2-(2-fluoroethyl)-1-{[(1-methylcyclopropyl)sulfonyl]carbamoyl}cyclopropyl]-14-methoxy-9-methyl-3,6-dioxo-1,1a,3,4,5,6,9,10,18,19,20,21,22,22a-tetradecahydro-8H-7,10-methanocyclopropa[18,19][1,10,3,6]dioxadiazacyclononadecino[11,12-b]quinoxaline-8-carboxamide], for which the EC50 was 13 nM in test [1]; 7.5 nM in [2]; 23 nM in [3]; 587 nM in [4]; 9.9 nM in test [5]; 9.5 nM in test [6] (setting [10]). The results for the EC50 in [7], in test [8] (setting [11]) and in [9] were 36 nM, 3.6 nM and 173 nM, respectively.

For the compound `COc1ccc2nc3c(nc2c1)O[C@H]1CN(C(=O)[C@H](C(C)(C)C)NC(=O)O[C@@H]2C[C@H]2CCCCC3)[C@H](C(=O)N[C@]2(C(=O)NS(=O)(=O)C3CC3)C[C@H]2CC(F)F)[C@@H]1C` [Example 24, (1aR,5S,8S,9S,10R,22aR)-5-tert-butyl-N-[(1R,2S)-1-[(cyclopropylsulfonoyl)carbamoyl]-2-(2,2-difluoroethyl)cyclopropyl]-14-methoxy-9-methyl-3,6-dioxo-1,1a,3,4,5,6,9,10,18,19,20,21,22,22a-tetradecahydro-8H-7,10-methanocyclopropa[18,19][1,10,3,6]dioxadiazacyclononadecino[11,12-b]quinoxaline-8-carboxamide], the EC50 was found to be 12 nM in test [1]; 7.5 nM in test [2]; 20 nM in test [3]; 663 nM in [4]; 9.2 nM in [5]; 9.3 nM in test [6] (setting [10]). The EC50 in test [7] came to 49 nM; in test [8] (setting [11]), 3.2 nM; in test [9] it was 284 nM.

In the case of `COc1ccc2nc3c(nc2c1)O[C@H]1CN(C(=O)[C@H](C(C)(C)C)NC(=O)O[C@@H]2C[C@H]2CCCCC3)[C@H](C(=O)N[C@]2(C(=O)NS(=O)(=O)C3(C)CC3)C[C@H]2CC(F)F)[C@@H]1C` [Example 25, (1aR,5S,8S,9S,10R,22aR)-5-tert-butyl-N-[(1R,2S)-2-(2,2-difluoroethyl)-1-{[(1-methylcyclopropyl)sulfonyl]carbamoyl}cyclopropyl]-14-methoxy-9-methyl-3,6-dioxo-1,1a,3,4,5,6,9,10,18,19,20,21,22,22a-tetradecahydro-8H-7,10-methanocyclopropa[18,19][1,10,3,6]dioxadiazacyclononadecino[11,12-b]quinoxaline-8-carboxamide], the EC50 worked out at 8.8 nM in test [1]; 6.3 nM in test [2]; 13 nM in test [3]; 409 nM in test [4]; 7.1 nM in test [5]; 4.4 nM in [6] (setting [10]). In addition, the EC50 in [7] is 17 nM; in test [8] (setting [11]), 3.6 nM; in test [9] it was 116 nM.

For the compound `COc1ccc2nc3c(nc2c1)O[C@H]1CN(C(=O)[C@H](C(C)(C)C)NC(=O)O[C@@H]2CCC[C@H]2CCCCC3)[C@H](C(=O)N[C@]2(C(=O)NS(=O)(=O)C3CC3)C[C@H]2C(F)F)[C@@H]1C` [Example 28, (3aR,7S,10S,11S,12R,24aR)-7-tert-butyl-N-[(1R,2R)-1-[(cyclopropylsulfonyl)carbamoyl]-2-(difluoromethyl)cyclopropyl]-16-methoxy-11-methyl-5,8-dioxo-1,2,3,3a,5,6,7,8,11,12,20,21,22,23,24,24a-hexadecahydro-10H-9,12-methanocyclopenta[18,19][1,10,3,6]dioxadiazacyclononadecino[11,12-b]quinoxaline-10-carboxamide], the EC50 in test [1] amounted to 6.7 nM; in test [2], 4.6 nM; in test [3], 6.2 nM; in test [4] it was 266 nM; in test [5], 4.1 nM; in test [6] (setting [10]), 3 nM. The EC50 is 9 nM in [7], 3.4 nM in [8] (setting [11]) and 54 nM in test [9].

Regarding `COc1ccc2nc3c(nc2c1)O[C@H]1CN(C(=O)[C@H](C(C)(C)C)NC(=O)O[C@@]2(C)C[C@@H]2CCCCC3)[C@H](C(=O)N[C@]2(C(=O)NS(=O)(=O)C3(C)CC3)C[C@H]2C(F)F)[C@@H]1C` [Example 45, (1aS,5S,8S,9S,10R,22aS)-5-tert-butyl-N-[(1R,2R)-2-(difluoromethyl)-1-{[(1-methylcyclopropyl)sulfonyl]carbamoyl}cyclopropyl]-14-methoxy-1a,9-dimethyl-3,6-dioxo-1,1a,3,4,5,6,9,10,18,19,20,21,22,22a-tetradecahydro-8H-7,10-methanocyclopropa[18,19][1,10,3,6]dioxadiazacyclononadecino[11,12-b]quinoxaline-8-carboxamide], the EC50 in test [1] worked out at 21 nM; in [2] it was 8.3 nM; in test [3] it was 24 nM; in test [4], 549 nM; in test [5] it was 13 nM; in [6] (setting [10]) it was 13 nM. Moreover, the EC50 in test [7] was 35 nM; in [8] (setting [11]), 5.3 nM; in test [9] it was 88 nM.
